From PMC8611843 (BMC Cancer, 2021)
Read-outs that look alike come from different tables or passages of the source.

How the values were obtained:
[1] = Plasma ENT concentration and PK parameters (LC/MS/MS); format: in vivo, Japanese patients
Procedure: The PK parameters assessed after single and/or combination therapy included time at which maximum plasma concentration (Cmax) was observed (tmax), and the area under the plasma concentration-time curve from time 0–168 h (AUC0–168).

[2] = tested on: HLA-DR, CD69, ICOS on CD4+ and CD8+ T-cells; test: T-cell activation markers on CD4+ and CD8+ T-cells in PBMCs; format: in vivo, Japanese patients; conditions: Cohorts 1–3
Procedure: Staining of CD3+ cells was performed using antibodies (all from BioLegend) against CD4 (Clone RPA-T4, Cat. 300512), CD8 (Clone SK-1, Cat. 344718), CD69 (Clone FN50, Cat. 310910), inducible T-cell costimulator (ICOS; Clone […], Cat. 313514), and human leukocyte antigen-DR (HLA-DR; Clone L243, Cat. 307630).

[3] = tested on: PBMCs derived from lung cancer patients; set-up: method as in PMID 28408401; conditions: cited from earlier work
[4] = once weekly; cited from earlier work
[5] = Electrocardiogram, change in QTc interval; format: in vivo, Japanese patients; conditions: patients tested
Procedure: (§1) The primary endpoint was safety. The severity of adverse events (AEs) was evaluated using National Cancer Institute Common Terminology Criteria for Adverse Events version 4.03 [21].

[6] = tested on: Ac-K levels in CD19+ cells; test: Protein lysine acetylation (Ac-K) levels in PBMCs; format: in vivo, Japanese patients; conditions: 24 h after first administration
Procedure: Ac-K levels in CD19+ cells, CD56+ CD16- cells, CD14+ monocytes, CD16+ cells, CD3+ T-cells, and CD45+ cells were measured using the previously reported methods, with a modification where antiacetylated lysine monoclonal antibody (BioLegend, San Diego, CA, USA; Clone 15G10, Cat. 623406) was used.

[7] = Phase 1 3 + 3 dose-escalation study: safety, DLTs and drug-related AEs (CTCAE v4.03); format: in vivo
Procedure: This study was based on a 3 + 3 dose-escalation design (Additional file 1). […] The duration of cycle 0 was 7 days and that of each cycle after cycle 1 was 28 days in principle. Treatment continued until progressive disease (PD) or discontinuation for other reasons (Additional file 1).
as §1
However, patients with nausea, vomiting, diarrhea, and hypophosphatemia were allowed to continue treatment without interruption by receiving the appropriate care.
AEs were summarized by System Organ Class and Preferred Term according to the Medical Dictionary for Regulatory Activities, version 20.1. The Kaplan-Meier method was used to estimate the median PFS (mPFS). PFS is defined as the duration of time from day 1 to the date of death or of PD, whichever came first. Patients who received subsequent therapy before confirmation of PD or in whom neither PD nor death was confirmed were censored at the last time point of non-PD confirmation. Clinical benefit rate (CBR) was defined as the percentage of patients achieving complete response (CR) or partial response (PR), or who maintained stable disease (SD) for more than 6 months.

[8] = tested on: HR+/HER2− advanced or metastatic BC; conditions: BOLERO-2, cited from earlier work
[9] = tested on: HR+/HER2− advanced or metastatic BC; set-up: method as in PMID 23650416; conditions: ENCORE 301, N = 130; cited from earlier work
[10] = Cohort 1 N = 3, ENT 3 mg mono → EXE combo
[11] = Cohort 2 N = 3, ENT 5 mg mono → EXE combo
[12] = Cohort 3 N = 3, ENT 10 mg mono → EXE combo
[13] = Cohort 4 N = 3, ENT 5 mg + EXE combo
[14] = Total N = 12, as of data cut-off date

In the case of `Nc1ccccc1NC(=O)c1ccc(CNC(=O)OCc2cccnc2)cc1` [ENT, Entinostat], the “AUC0–168 dose dependency” value ([1]; ENT alone, 3, 5, 10 mg) is reported as “increased linearly with dose”, the Steady state reached ([1]; all cohorts) is reported as “cycle 1, day 15” and the Tmax ([1]; human, plasma, oral administration, all cohorts) is reported as 28.8 to 85.2 min. For the same molecule, the Cmax dose dependency ([1]; intersubject variability high at 10 mg) was “increased in accordance with dose escalation between 3 mg and 5 mg”, the “Expression of HLA-DR in CD4+ and CD8+ T-cells” value [2] was “increased over time” and the “Expression of CD69” value ([2]; some patients, greater with SD ≥ 6 months) was “Increased expression”. The “T-cell activation markers such as CD69” value [3] was “increases”, the Maximum tolerated dose [4] was 4 mg/m^2 and the Effect on electrocardiograms [5] was “no effect”. For the same molecule, the “Increase of Ac-K levels in CD19+ cells vs prior to administration” value (“Increase of Ac-K levels in CD19+ cells” below) ([6]; Cohort 1 (ENT 3 mg)) was “about 1.5 fold”, the “Increase of Ac-K levels in CD19+ cells” value ([6]; Cohort 2 (ENT 5 mg)) was about 1.9 fold and the “Increase of Ac-K levels in CD19+ cells” value ([6]; Cohort 3 (ENT 10 mg)) was about 2.7 fold. The “Anemia, G2 (n patients, drug-related AE)” value [7, 10] was 1, the “Back pain, G1 (n patients, drug-related AE)” value (“Back pain, G1” below) [7, 10] was 1 and the “Diarrhea, G2 (n patients, drug-related AE)” value [7, 10] was 1. For the same molecule, the “Hypoalbuminemia, G1 (n patients, drug-related AE)” value (“Hypoalbuminemia, G1” for short) [7, 10] was 1, the “Hypoalbuminemia, G2 (n patients, drug-related AE)” value (“Hypoalbuminemia, G2” below) [7, 10] was 1 and the “Neutrophil count decreased, G2 (n patients, drug-related AE)” value (“Neutrophil count decreased, G2” for short) [7, 10] was 2. The “Neutrophil count decreased, G3 (n patients, drug-related AE)” value (“Neutrophil count decreased, G3” for short) [7, 10] was 1, the “Platelet count decreased, G1 (n patients, drug-related AE)” value (“Platelet count decreased, G1” below) [7, 10] was 2 and the “Pneumonitis, G1 (n patients, drug-related AE)” value (“Pneumonitis, G1” for short) [7, 10] was 1. The “Weight decreased, G2 (n patients, drug-related AE)” value [7, 10] was 1, the “White blood cell count decreased, G1 (n patients, drug-related AE)” value [7, 10] was 1 and the “White blood cell count decreased, G2 (n patients, drug-related AE)” value (“White blood cell count decreased, G2” below) [7, 10] was 1. For the same molecule, the “Anemia, G1 (n patients, drug-related AE)” value [7, 11] was 1, the “Decreased appetite, G1 (n patients, drug-related AE)” value (from here on “Decreased appetite, G1”) [7, 11] was 1 and the “Diarrhea, G1 (n patients, drug-related AE)” value [7, 11] was 1. The “Fatigue, G1 (n patients, drug-related AE)” value (shortened to “Fatigue, G1”) [7, 11] was 1, the “Gastritis, G1 (n patients, drug-related AE)” value (from here on “Gastritis, G1”) [7, 11] was 1 and the “Headache, G1 (n patients, drug-related AE)” value (from here on “Headache, G1”) [7, 11] was 1. For the same molecule, the “Hypoalbuminemia, G2” value [7, 11] was 1, the “Hypophosphatemia, G3 (n patients, drug-related AE)” value (“Hypophosphatemia, G3” for short) [7, 11] was 2 and the “Nausea, G1 (n patients, drug-related AE)” value [7, 11] was 2. The “Neutrophil count decreased, G2” value [7, 11] was 1, the “Neutrophil count decreased, G3” value [7, 11] was 1 and the “Platelet count decreased, G1” value [7, 11] was 1. For the same molecule, the “Platelet count decreased, G3 (n patients, drug-related AE)” value (from here on “Platelet count decreased, G3”) [7, 11] was 1, the “White blood cell count decreased, G2” value [7, 11] was 1 and the “Anemia, G2 (n patients, drug-related AE)” value [7, 12] was 1. The “Back pain, G1” value [7, 12] was 1, the “Decreased appetite, G1” value [7, 12] was 1 and the “Fatigue, G1” value [7, 12] was 1. The “Headache, G1” value [7, 12] was 1, the “Hypoalbuminemia, G2” value [7, 12] was 2 and the “Hypophosphatemia, G2 (n patients, drug-related AE)” value [7, 12] was 1. For the same molecule, the “Hypophosphatemia, G3” value [7, 12] was 1, the “Nausea, G1 (n patients, drug-related AE)” value [7, 12] was 2 and the “Neutrophil count decreased, G2” value [7, 12] was 1. For the same molecule, the “Platelet count decreased, G1” value [7, 12] was 1, the “White blood cell count decreased, G2” value [7, 12] was 1 and the “Anemia, G3 (n patients, drug-related AE)” value [7, 13] was 1. For the same molecule, the “Fatigue, G1” value [7, 13] was 1, the “Gastritis, G1” value [7, 13] was 1 and the “Hypoalbuminemia, G1” value [7, 13] was 1. For the same molecule, the “Hypoalbuminemia, G2” value [7, 13] was 1, the “Hypophosphatemia, G3” value [7, 13] was 1 and the “Nausea, G1 (n patients, drug-related AE)” value [7, 13] was 2. For the same molecule, the “Neutrophil count decreased, G2” value [7, 13] was 1, the “Neutrophil count decreased, G3” value [7, 13] was 1 and the “Platelet count decreased, G2 (n patients, drug-related AE)” value [7, 13] was 1. The “Platelet count decreased, G3” value [7, 13] was 1, the “Pneumonitis, G1” value [7, 13] was 1 and the “Weight decreased, G1 (n patients, drug-related AE)” value [7, 13] was 1. The “White blood cell count decreased, G2” value [7, 13] was 1, the “Drug-related hypophosphatemia, grade 1 or 2” value ([7]; DLT observation period) was “one patient in Cohorts 2, 3, and 4” and the “Drug-related nausea, grade 1” value ([7]; DLT observation period) was “one patient in Cohort 3 and two patients in Cohort 4”. The “Drug-related platelet count decreased, grade 1 or 2” value ([7]; DLT observation period) was “two patients in Cohort 4”, the “DLTs or grade 3–5 AEs” value ([7]; DLT observation period, ENT 3 mg or 5 mg once weekly or 10 mg single dose mono, ENT 5 mg weekly + EXE 25 mg/d) was “no DLTs or grade 3–5 AEs occurred” and the “Anemia, G1 (n patients, drug-related AE)” value [7, 14] was 1. For the same molecule, the “Anemia, G2 (n patients, drug-related AE)” value [7, 14] was 2, the “Anemia, G3 (n patients, drug-related AE)” value [7, 14] was 1 and the “Back pain, G1” value [7, 14] was 2. The “Decreased appetite, G1” value [7, 14] was 2, the “Diarrhea, G1 (n patients, drug-related AE)” value [7, 14] was 1 and the “Diarrhea, G2 (n patients, drug-related AE)” value [7, 14] was 1. For the same molecule, the “Fatigue, G1” value [7, 14] was 3, the “Gastritis, G1” value [7, 14] was 2 and the “Headache, G1” value [7, 14] was 2. The “Hypoalbuminemia, G1” value [7, 14] was 2, the “Hypoalbuminemia, G2” value [7, 14] was 5 and the “Hypophosphatemia, G2 (n patients, drug-related AE)” value [7, 14] was 1. The “Hypophosphatemia, G3” value [7, 14] was 4, the “Nausea, G1 (n patients, drug-related AE)” value [7, 14] was 6 and the “Neutrophil count decreased, G2” value [7, 14] was 5. The “Neutrophil count decreased, G3” value [7, 14] was 3, the “Platelet count decreased, G1” value [7, 14] was 4 and the “Platelet count decreased, G2 (n patients, drug-related AE)” value [7, 14] was 1. The “Platelet count decreased, G3” value [7, 14] was 2, the “Pneumonitis, G1” value [7, 14] was 2 and the “Weight decreased, G1 (n patients, drug-related AE)” value [7, 14] was 1. For the same molecule, the “Weight decreased, G2 (n patients, drug-related AE)” value [7, 14] was 1, the “White blood cell count decreased, G1 (n patients, drug-related AE)” value [7, 14] was 1 and the “White blood cell count decreased, G2” value [7, 14] was 4. The “Study treatment interrupted because of grade 3 platelet count decreased” value ([7]; by data cut-off date) was “two patients”, the “Study treatment interrupted owing to grade 3 neutrophil count decreased” value ([7]; by data cut-off date) was “Three patients” and the ENT dose reduction ([7]; during DLT observation period, all cohorts) was “not observed”. The “ENT dose reduction from 5 mg to 3 mg owing to platelet count decreased and hypophosphatemia” value ([7]; in combination with EXE after DLT observation period) was “one patient in Cohort 2 and two patients in Cohort 4” and the “Serious AEs (SAEs)” value ([7]; start of study to cut-off date) was “one case each of abdominal pain (grade 2), pulmonary embolism (grade 3), maculopapular rash (grade 3), and femoral neck fracture (grade 3)”.

In the case of `C=C1C[C@@H]2[C@H](CC[C@]3(C)C(=O)CC[C@@H]23)[C@@]2(C)C=CC(=O)C=C12` [EXE, exemestane], the “Influence on the PK of ENT” value ([1]; ENT monotherapy vs ENT + EXE 25 mg/d) is listed as “no influence”, the mPFS ([8]; 35 Japanese patients) is listed as 4.21 months and the mPFS ([8]; second-line or later hormonal therapy) is listed as 4.1 months. For the same molecule, the “Median OS” value [9] was 19.84 months and the “Median PFS” value [9] was 2.3 months.
